± gives the expanded uncertainty stated by the source.
Conditions: 101.33 kPa, Liquid; for speed of sound: Sing-around technique in a fixed-path interferometer; for mass density: Vibrating tube method

| SMILES | speed of sound (293.15 K) | mass density (293.15 K) | speed of sound (298.15 K) | mass density (298.15 K) | speed of sound (303.15 K) | mass density (303.15 K) |
| --- | --- | --- | --- | --- | --- | --- |
| CO [methanol] | 1118 ± 1 m/s | 791.55 ± 0.12 kg/m3 | 1101.4 ± 0.6 m/s | 787.2 ± 0.12 kg/m3 | 1086.6 ± 0.6 m/s | 782.44 ± 0.12 kg/m3 |
| CCCCCCCCCCO [decan-1-ol] | 1397.1 ± 1.2 m/s | 829.95 ± 0.24 kg/m3 | 1380.3 ± 1.2 m/s | 826.95 ± 0.24 kg/m3 | 1364.1 ± 1.2 m/s | 823.15 ± 0.24 kg/m3 |
| CCCCO [butan-1-ol] | 1256.2 ± 0.7 m/s | 809.89 ± 0.12 kg/m3 | 1239.6 ± 0.7 m/s | 806.47 ± 0.12 kg/m3 | 1223.8 ± 0.7 m/s | 802.22 ± 0.12 kg/m3 |
| CCOCCOCCOCC [diethylene glycol diethyl ether] | 1259.4 ± 1.2 m/s | 906.73 ± 0.23 kg/m3 | 1239.9 ± 1.2 m/s | 902.88 ± 0.23 kg/m3 | 1221.8 ± 1.2 m/s | 897.22 ± 0.23 kg/m3 |

Reference: the NIST ThermoML archive (doi:10.1016/j.jct.2012.12.007)
